Assay results from patent US12435091B2, “RNA-binding protein multimerization inhibitors and methods of use thereof” (THE UAB RESEARCH FOUNDATION, priority 2020, dated 2025).

What was measured:
PIM1 = PIM1 (Homo sapiens, UniProt P11309); experiment: SelectScreen kinase profiling, ZLYTE; type: biochemical
Method: (§1) The kinase inhibitory potentials of compounds as described herein (e.g., SRI-42127 and SRI-41664) were evaluated by ThermoFisher Scientific's SelectScreen™ Kinase Profiling Service. The following kinase inhibitory assays were utilized: ZLYTE (Madison, WI) for NTRK1, PIM1, and cMET kinases; LanthaScreen Binding (Madison, WI) for AAK1 kinase; and Adapta (Madison, WI) for IRAK1 kinase.

cMET = cMET (Homo sapiens, UniProt P08581); experiment: SelectScreen kinase profiling, ZLYTE; type: biochemical
cMET, sequence (P08581 25-1390): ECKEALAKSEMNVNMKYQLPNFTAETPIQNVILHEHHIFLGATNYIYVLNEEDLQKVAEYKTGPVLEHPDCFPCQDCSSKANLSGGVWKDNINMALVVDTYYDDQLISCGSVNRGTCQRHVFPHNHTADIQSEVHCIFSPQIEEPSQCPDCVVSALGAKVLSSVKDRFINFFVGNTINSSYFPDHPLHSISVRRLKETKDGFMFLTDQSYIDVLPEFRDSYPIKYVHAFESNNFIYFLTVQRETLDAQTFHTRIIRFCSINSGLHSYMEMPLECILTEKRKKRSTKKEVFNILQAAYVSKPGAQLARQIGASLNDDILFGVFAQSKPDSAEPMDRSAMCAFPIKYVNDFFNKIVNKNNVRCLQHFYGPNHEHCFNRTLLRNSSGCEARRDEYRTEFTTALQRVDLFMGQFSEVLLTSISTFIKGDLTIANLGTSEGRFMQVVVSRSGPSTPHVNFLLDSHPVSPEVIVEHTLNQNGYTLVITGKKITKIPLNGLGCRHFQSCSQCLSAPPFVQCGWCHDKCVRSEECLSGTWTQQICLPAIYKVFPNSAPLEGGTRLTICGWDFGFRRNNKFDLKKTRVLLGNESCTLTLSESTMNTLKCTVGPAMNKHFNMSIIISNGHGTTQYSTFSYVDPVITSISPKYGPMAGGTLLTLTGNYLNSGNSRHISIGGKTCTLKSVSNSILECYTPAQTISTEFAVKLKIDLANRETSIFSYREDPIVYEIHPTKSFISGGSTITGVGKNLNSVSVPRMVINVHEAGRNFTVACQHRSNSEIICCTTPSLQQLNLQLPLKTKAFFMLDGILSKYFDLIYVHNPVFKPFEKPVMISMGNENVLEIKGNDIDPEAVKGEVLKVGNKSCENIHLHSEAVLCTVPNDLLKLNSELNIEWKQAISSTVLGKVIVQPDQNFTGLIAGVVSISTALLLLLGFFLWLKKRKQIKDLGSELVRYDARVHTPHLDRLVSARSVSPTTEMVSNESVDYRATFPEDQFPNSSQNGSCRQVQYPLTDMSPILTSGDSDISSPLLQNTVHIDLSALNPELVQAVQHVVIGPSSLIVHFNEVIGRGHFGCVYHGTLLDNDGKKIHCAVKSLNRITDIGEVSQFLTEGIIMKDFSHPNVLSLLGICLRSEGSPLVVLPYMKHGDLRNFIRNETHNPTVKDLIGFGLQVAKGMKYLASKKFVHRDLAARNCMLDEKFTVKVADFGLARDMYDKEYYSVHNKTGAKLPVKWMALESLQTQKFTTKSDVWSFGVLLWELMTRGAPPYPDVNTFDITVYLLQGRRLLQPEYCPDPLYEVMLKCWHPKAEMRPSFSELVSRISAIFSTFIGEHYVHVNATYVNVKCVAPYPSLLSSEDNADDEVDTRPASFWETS
Method: as §1

TRKA (NTRK1) = TRKA (NTRK1) (Homo sapiens, UniProt P04629); experiment: SelectScreen kinase profiling, ZLYTE; type: biochemical
TRKA (NTRK1), sequence (P04629 33-796): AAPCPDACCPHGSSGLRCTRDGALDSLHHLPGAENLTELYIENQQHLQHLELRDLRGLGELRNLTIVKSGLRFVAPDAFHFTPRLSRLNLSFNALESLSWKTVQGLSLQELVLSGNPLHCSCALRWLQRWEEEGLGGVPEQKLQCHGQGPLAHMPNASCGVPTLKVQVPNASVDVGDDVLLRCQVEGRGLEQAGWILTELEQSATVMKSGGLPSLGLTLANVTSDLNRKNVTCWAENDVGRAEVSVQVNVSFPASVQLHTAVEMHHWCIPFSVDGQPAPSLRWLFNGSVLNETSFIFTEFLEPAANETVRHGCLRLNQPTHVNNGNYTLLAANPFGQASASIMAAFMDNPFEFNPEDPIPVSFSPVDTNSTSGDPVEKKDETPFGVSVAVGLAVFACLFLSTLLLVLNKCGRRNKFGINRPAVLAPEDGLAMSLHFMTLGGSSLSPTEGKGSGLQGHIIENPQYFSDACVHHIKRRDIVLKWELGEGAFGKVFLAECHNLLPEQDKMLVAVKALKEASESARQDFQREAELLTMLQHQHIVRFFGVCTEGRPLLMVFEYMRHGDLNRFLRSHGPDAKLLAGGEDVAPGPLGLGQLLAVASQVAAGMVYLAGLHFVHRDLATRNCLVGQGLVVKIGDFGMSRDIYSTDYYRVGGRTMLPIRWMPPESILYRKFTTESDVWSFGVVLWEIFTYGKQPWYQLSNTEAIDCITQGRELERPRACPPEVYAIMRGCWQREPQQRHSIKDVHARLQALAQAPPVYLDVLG
Method: as §1

spinal cord injury = experiment: mid-thoracic contusion spinal cord injury in mice; type: in vivo
Method: Wild-type male mice were subjected to a mid-thoracic contusion injury and then treated with SRI-42127 (15 mg/kg) every 8 hours for 4 days, starting 1 hour after injury. […] Not to be bound by theory, similar to spinal cord injury, chronic pain signaling is triggered by activation of microglia and astroglia in the spinal cord and production of inflammatory mediators (e.g. TNF-α, IL-1β, IL-6, INOS, CCL2) that induce hyperexcitation of sensory neurons in the dorsal horn. Mice underwent sciatic nerve lesioning to produce a spared nerve injury and then received SRI-42127 (15 mg/kg) or vehicle every 6 hours for 4 days (starting 1 h after injury). Mechanical sensitivity was assessed at day 7 post-injury. […] Following this test, a subset of mice in the DMSO-treated group was given an acute administration of SRI-42127 (or DMSO) and their mechanical sensitivity was tested at 30 minutes and 60 minutes post-administration. Acute treatment with SRI-42127 reversed allodynia in these mice for at least 60 minutes (p<0.01, FIG. 21, Panel D).

[1] = test system: X1524 neurospheres, HuR mRNA targets; experiment: Illumina global RNA-sequencing of PDGx neurospheres; type: cell-based; details: 3 uM, 12 hours, compared to control
Method: (§2) Illumina global RNA-sequencing data were generated by utilizing PDGx neurospheres, which have been treated with a compound as described herein (e.g., SRI-42127, 3 uM) for 12 hours or with vehicle as the control. RNA was isolated by using TRIzol reagent (Invitrogen; Carlsbad, CA). The RNA samples were processed.
(§3) RNA sequencing was performed on PDGx-derived glioma neurospheres representing the different molecular subtypes (classical, neuronal, and mesenchymal) after treatment with vehicle (control) or SRI-42127 (3 uM) for 12 hours. Analysis of direct HuR mRNA targets and their corresponding cell signaling pathways was performed. Table 9 illustrates the evaluated gene sets, representing direct HuR mRNA targets, and their corresponding cell signaling pathways.
(§4) The analysis of direct HuR mRNA targets and their corresponding cell signaling pathways has been performed by using gene sets, which have been defined as the direct HuR targets following tumor neurosphere treatment with DHTS, an established modulator of HuR/mRNA interaction (Lal et al., Nucleic Acid Research, 2017). […] Data are represented as average+standard deviation (Aver+SD). The significance was evaluated by using Student t-test.
(§5) The analysis was generated based on RNA-Seq data.

[2] = test system: JX22p neurospheres, HuR mRNA targets; experiment: as above; type: cell-based; details: 3 uM, 12 hours, compared to control
Method: as §2, §3, §4, §5

brain tissue binding = type: in vitro ADME
[3] = test system: secreted proteins of astrocytes; experiment: ELISA of secreted proteins in culture media of LPS-stimulated astrocytes; type: cell-based
Method: Next, the impact of SRI-42127 on induction of inflammatory cytokine mRNAs as depicted in FIG. 15, Panel B was assessed. A significant 3-4-fold suppression of mRNA for IL-1β, IL-6, CXCL1, and CCL2 was observed. […] All chemokines were likewise suppressed, including KC, CCL2, CCL3, CCL4, CXCL10, from 2.5 to 8.1-fold.

PIM1, sequence (P11309 whole entry): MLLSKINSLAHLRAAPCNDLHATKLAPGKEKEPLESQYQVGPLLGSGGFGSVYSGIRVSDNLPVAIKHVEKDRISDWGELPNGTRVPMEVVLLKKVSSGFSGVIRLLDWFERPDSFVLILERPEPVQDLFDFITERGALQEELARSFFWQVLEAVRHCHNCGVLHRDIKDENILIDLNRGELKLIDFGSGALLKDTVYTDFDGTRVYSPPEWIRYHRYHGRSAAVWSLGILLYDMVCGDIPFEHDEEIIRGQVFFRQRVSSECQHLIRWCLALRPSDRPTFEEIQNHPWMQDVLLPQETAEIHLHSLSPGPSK

CN(c1ccc2ncc(-c3ccc4cn[nH]c4c3)n2n1)C1CCOCC1 [Compound 19]
IC50 (PIM1): 668 nM
IC50 (cMET): > 10000 nM
IC50 (TRKA (NTRK1)): 117 nM
increase in surviving neurons in the epicenter of injury (spinal cord injury; 15 mg/kg every 8 hours for 4 days, stereology 2 weeks post injury): > 2 fold
increase in neuronal counts by stereology (spinal cord injury; 4 weeks post SCI (FIG. 21, Panel B)): > 50%
gene set average value, Activation of BH3-only proteins Homo sapiens_R-HSA-114452 [1]: 0.75
gene set average value, Cell Cycle Check points_Homo Sapiens_R-HSA-69620 [1]: 0.66
gene set average value, Cell Cycle, Mitotic_Homo Sapiens_R-HSA-69278 [1]: 0.67
gene set average value, Cell Cycle_Homo sapiens_R-HSA-1640170 [1]: 0.66
gene set average value, Cell cycle_Homo Sapiens_hsa04110 [1]: 0.75
gene set average value, Cellular Senescence_Homo sapiens_R-HSA-2559583 [1]: 0.76
gene set average value, Cellular responses to Stress_Homo sapiens_R-HSA-2262752 [1]: 0.70
gene set average value, Deadenylation-dependent mRNA decay_Homo sapiens_R-HSA-429914 [1]: 0.84
gene set average value, Developmental Biology_Homo sapiens_R-HSA-1266738 [1]: 0.72
gene set average value, Epstein-Barr virus Infection_Homo Sapiens_hsa05169 [1]: 0.79
gene set average value, G2/M Check points_Homo sapiens_R-HSA-69481 [1]: 0.66
gene set average value, G2/M DNA damage Checkpoint_Homo sapiens_R-HSA-69473 [1]: 0.67
gene set average value, Gene Expression_Homo Sapiens_R-HSA-2559583 [1]: 0.87
gene set average value, HTLV-1 infection_Homo Sapiens_hsa05186 [1]: 0.88
gene set average value, Intrinsic Pathway for Apoptosis_Homo sapiens_R-HSA-109606 [1]: 0.75
gene set average value, MAPK signaling Pathway_Homo Sapiens_hsa04010 [1]: 0.76
gene set average value, Membrane Trafficking_Homo sapiens_R-HAS-199991 [1]: 0.61
gene set average value, Mitotic G1-G1/S phases_Homo sapiens_R-HSA-453279 [1]: 0.63
gene set average value, P53 signaling pathway_Homo Sapiens_hsa04115 [1]: 1.07
gene set average value, RHO GTPases Activate Formins_Homo sapiens_R-HSA-5663220 [1]: 0.65
gene set average value, RHO GTPases Effectors_Homo sapiens_R-HSA-195258 [1]: 0.69
gene set average value, RNA degradation_Homo Sapiens_hsa03018 [1]: 0.94
gene set average value, Regulation of TP53 Activity through Phosphorylation_Homo sapiens_R-HSA-6804756 [1]: 0.64
gene set average value, Regulation of TP53 Activity_Homo sapiens_R-HSA-109606 [1]: 0.77
gene set average value, Signaling by Rho GTPases_Homo sapiens_R-HSA-194315 [1]: 0.72
gene set average value, TP53 Regulates Metabolic Genes_Homo sapiens_R-HSA-5628897 [1]: 0.78
gene set average value, Transcriptional Regulation by TP53_Homo sapiens_R-HSA-3700989 [1]: 0.81
gene set average value, Translocation of GLUT4 to the plasma membrane_Homo sapiens_R-HSA-1445148 [1]: 0.69
gene set average value, Activation of BH3-only proteins Homo sapiens_R-HSA-114452 [2]: 0.42
gene set average value, Cell Cycle Check points_Homo Sapiens_R-HSA-69620 [2]: 0.35
gene set average value, Cell Cycle, Mitotic_Homo Sapiens_R-HSA-69278 [2]: 0.32
gene set average value, Cell Cycle_Homo sapiens_R-HSA-1640170 [2]: 0.36
gene set average value, Cell cycle_Homo Sapiens_hsa04110 [2]: 0.37
gene set average value, Cellular Senescence_Homo sapiens_R-HSA-2559583 [2]: 0.28
gene set average value, Cellular responses to Stress_Homo sapiens_R-HSA-2262752 [2]: 0.27
gene set average value, Deadenylation-dependent mRNA decay_Homo sapiens_R-HSA-429914 [2]: 0.31
gene set average value, Developmental Biology_Homo sapiens_R-HSA-1266738 [2]: 0.32
gene set average value, Epstein-Barr virus Infection_Homo Sapiens_hsa05169 [2]: 0.43
gene set average value, G2/M Check points_Homo sapiens_R-HSA-69481 [2]: 0.39
gene set average value, G2/M DNA damage Checkpoint_Homo sapiens_R-HSA-69473 [2]: 0.39
gene set average value, Gene Expression_Homo Sapiens_R-HSA-2559583 [2]: 0.37
gene set average value, HTLV-1 infection_Homo Sapiens_hsa05186 [2]: 0.47
gene set average value, Intrinsic Pathway for Apoptosis_Homo sapiens_R-HSA-109606 [2]: 0.42
gene set average value, MAPK signaling Pathway_Homo Sapiens_hsa04010 [2]: 0.31
gene set average value, Membrane Trafficking_Homo sapiens_R-HAS-199991 [2]: 0.28
gene set average value, Mitotic G1-G1/S phases_Homo sapiens_R-HSA-453279 [2]: 0.36
gene set average value, P53 signaling pathway_Homo Sapiens_hsa04115 [2]: 0.24
gene set average value, RHO GTPases Activate Formins_Homo sapiens_R-HSA-5663220 [2]: 0.26
gene set average value, RHO GTPases Effectors_Homo sapiens_R-HSA-195258 [2]: 0.30
gene set average value, RNA degradation_Homo Sapiens_hsa03018 [2]: 0.35
gene set average value, Regulation of TP53 Activity through Phosphorylation_Homo sapiens_R-HSA-6804756 [2]: 0.34
gene set average value, Regulation of TP53 Activity_Homo sapiens_R-HSA-109606 [2]: 0.31
gene set average value, Signaling by Rho GTPases_Homo sapiens_R-HSA-194315 [2]: 0.30
gene set average value, TP53 Regulates Metabolic Genes_Homo sapiens_R-HSA-5628897 [2]: 0.30
gene set average value, Transcriptional Regulation by TP53_Homo sapiens_R-HSA-3700989 [2]: 0.31
gene set average value, Translocation of GLUT4 to the plasma membrane_Homo sapiens_R-HSA-1445148 [2]: 0.40
brain tissue binding (brain tissue binding): 99.13%
recovery (brain tissue binding; brain tissue, relatively low due to instability or high nonspecific binding): 69.6%
suppression of secreted chemokines KC, CCL2, CCL3, CCL4, CXCL10 [3]: 2.5 to 8.1 fold
suppression of secreted IL-6 ([3]; 1.0 μM): 8.8 fold
suppression of secreted TNF-α ([3]; 1.0 μM): 5.7 fold
